Legend:
P450 3A4 [1] = molecular target: T1, P450 3A4 (Homo sapiens, UniProt P08684, form not given); experiment: in vitro; settings: P450 3A4 reconstituted with cholate/phospholipid mixture, probe testosterone 6β-hydroxylation, 25 μM
P450 3A4 [2] = molecular target: T2, P450 3A4 (Homo sapiens, UniProt P08684); experiment: Inhibitor-binding kinetics (stopped-flow absorbance, SVD analysis); settings: P450 3A4 2 μM
Excerpt: Equal volumes of buffered solutions of P450 3A4 and ligand were mixed, with a nominal dead time of 2 ms. Data were collected in the Show Pre-trigger Mode, with a short amount of data from the previous run (completed reaction) shown prior to mixing. […] From the accumulated spectra from each individual experiment (5–10 shots per concentration), generally the A420 data were subtracted from the A390 data points or A390 data were subtracted from the A425 data points, and the difference (ΔA390 − A420 or ΔA425 − A390 versus time) traces were averaged using the OLIS GlobalWorks software and fit to first-order fits (or used in SVD analysis; Figs. 9 and S7–S10).

P450 3A4 [3] = molecular target: T1, P450 3A4; experiment: in vitro; settings: P450 3A4 reconstituted with cholate/phospholipid mixture, probe 7-OBz quinoline (7-benzoyl quinoline) O-debenzylation, 20 μM
Description: For catalytic assays, P450 3A4 was reconstituted with a cholate/phospholipid mixture as described previously ([42], [43]). In general, reactions were initiated either with NADPH (1 mM) or an NADPH-generating system ([76]).
Water was added, and 7-OBz quinoline (in ethanol) was aliquoted at 0.5% (v/v) to a final concentration of 20 μM. Inhibitors (in dimethyl sulfoxide) were added (final concentration 0.5% dimethyl sulfoxide, v/v) for their desired final concentrations (0–10 μM), bringing the total organic solvent composition of the reaction to 1% (v/v). Preincubations proceeded at 37 °C for 5 min and were initiated with the addition of the NADPH-generating system ([76]). Reactions (8 min) were quenched with 100 μl of cold CH3CN on ice and centrifuged at 2000g for 10 min to pellet precipitated protein. […] The product 7-OH quinoline was detected using a Waters Acuity fluorescence detector with excitation and emission wavelengths set at 420 and 503 nm, respectively.

P450 3A4 [4] = molecular target: T2, P450 3A4; settings: equimolar inhibitor (50 nM), 160 μM 7-OBz quinoline added, 23 °C
P450 3A4 [5] = molecular target: T2, P450 3A4; settings: inhibitor 0.02 μM
Description: Assays for the kinetics of inhibition were done using an OLIS RSM-1000 stopped-flow instrument (On-Line Instrument Systems) in the fluorescence mode (150 W xenon lamp), with the excitation monochromator set at 410 nm and using a >515 nm Oriel long-pass filter (Newport) with the sample photomultiplier tube. The slit widths were 6.32 mm, and the sample and reference voltages of the photomultiplier tubes were 700 and 350 V, respectively. Reactions were done at 23 °C for 180 s.
One syringe contained the P450 3A4 system (100 nM P450 3A4, 200 nM POR, and 100 nM cytochrome b5) along with the other components of a “5×” mixture (potassium Hepes (pH 7.4), reduced glutathione, sodium cholate, and phospholipid mixture) combined with the 5× buffer mixture (Hepes, MgCl2, and reduced glutathione) ([42]), plus NADPH and the inhibitor compound. Fluorescence data were collected for 3 min (at 23 °C) and moved to Excel, Prism, and KinTek Explorer programs for analysis.

P450 3A4 [6] = molecular target: T2, P450 3A4; settings: P450 enzyme system + NADPH, UPLC-MS
[7] = inhibitor 15 μM, three-species 1→2→3 model

T1 sequence (P08684 13-503): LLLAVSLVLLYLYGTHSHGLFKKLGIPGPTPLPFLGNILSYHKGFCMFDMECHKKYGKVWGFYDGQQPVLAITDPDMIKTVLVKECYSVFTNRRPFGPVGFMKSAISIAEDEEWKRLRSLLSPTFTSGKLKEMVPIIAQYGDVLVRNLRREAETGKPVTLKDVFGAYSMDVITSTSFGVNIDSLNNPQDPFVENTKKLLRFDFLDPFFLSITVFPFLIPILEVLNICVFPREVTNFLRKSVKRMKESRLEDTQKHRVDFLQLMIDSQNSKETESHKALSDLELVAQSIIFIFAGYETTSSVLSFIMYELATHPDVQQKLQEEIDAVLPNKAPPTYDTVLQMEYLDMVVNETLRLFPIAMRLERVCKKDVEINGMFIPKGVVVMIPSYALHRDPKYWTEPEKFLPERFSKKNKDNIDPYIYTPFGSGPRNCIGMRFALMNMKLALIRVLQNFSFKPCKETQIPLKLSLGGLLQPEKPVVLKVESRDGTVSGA
T1 sequence (P00388 2-678 partner): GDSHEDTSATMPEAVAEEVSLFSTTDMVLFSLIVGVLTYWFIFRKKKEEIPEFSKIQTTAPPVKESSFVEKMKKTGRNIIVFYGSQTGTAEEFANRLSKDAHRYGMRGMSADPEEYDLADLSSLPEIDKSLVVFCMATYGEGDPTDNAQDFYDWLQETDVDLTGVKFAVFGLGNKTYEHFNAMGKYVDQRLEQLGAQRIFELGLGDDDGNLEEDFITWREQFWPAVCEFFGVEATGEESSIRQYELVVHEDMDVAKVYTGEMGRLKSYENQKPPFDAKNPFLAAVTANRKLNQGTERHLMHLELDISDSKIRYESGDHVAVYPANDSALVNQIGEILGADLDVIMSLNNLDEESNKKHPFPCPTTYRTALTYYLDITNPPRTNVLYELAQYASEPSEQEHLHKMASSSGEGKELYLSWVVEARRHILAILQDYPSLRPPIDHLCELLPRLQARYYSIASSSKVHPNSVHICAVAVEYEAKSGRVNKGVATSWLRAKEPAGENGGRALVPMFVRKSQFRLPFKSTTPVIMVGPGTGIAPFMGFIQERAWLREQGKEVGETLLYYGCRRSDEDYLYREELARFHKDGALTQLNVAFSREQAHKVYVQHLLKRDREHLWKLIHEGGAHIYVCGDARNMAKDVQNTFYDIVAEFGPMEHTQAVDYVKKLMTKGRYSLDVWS
T1 sequence (P00167 2-134 partner): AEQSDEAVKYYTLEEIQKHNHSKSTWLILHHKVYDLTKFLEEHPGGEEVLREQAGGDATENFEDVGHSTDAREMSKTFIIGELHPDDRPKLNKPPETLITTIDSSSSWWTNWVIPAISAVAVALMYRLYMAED
T2 sequence (P08684 13-503): as the sequence (P08684 13-503) above
T2 sequence (P00388 2-678 partner): as the sequence (P00388 2-678 partner) above
T2 sequence (P00167 2-134 partner): as the sequence (P00167 2-134 partner) above

Structure (SMILES) | IC50 at 15 min (P450 3A4 [1]) [nM] | Spectral binding (SVD) k1 (P450 3A4 [2]; [7]) [s] | Spectral binding (SVD) k2 (P450 3A4 [2]; [7]) [s⁻¹] | kobs, initial rate of binding (ΔA390 − A425) (P450 3A4 [2]; ligand 4 μM final) [s⁻¹] | IC50 at 8 min (P450 3A4 [3]) [nM] | lag phase in recovery of catalytic activity (P450 3A4 [4]) [s] | Onset of 7-OBz quinoline O-debenzylation inhibition, Rate (k1) (P450 3A4 [5]) [s⁻¹] | substrate for P450 3A4 (product formation) (P450 3A4 [6])
Clc1ccccc1C(c1ccccc1)(c1ccccc1)n1ccnc1 [Clotrimazole] | 110 | 0.092 ± 0.01 | 0.016 ± 0.005 | 235 | 110 | ~45 | 0.39 ± 0.03 | is a substrate as well as an inhibitor of P450 3A4
CCC(C)n1ncn(-c2ccc(N3CCN(c4ccc(OCC5COC(Cn6cncn6)(c6ccc(Cl)cc6Cl)O5)cc4)CC3)cc2)c1=O (stereo not shown) [Itraconazole] | 1490 | – | – | – | 2020 | – | – | –

Reference: article PMC7948456, “Kinetics of cytochrome P450 3A4 inhibition by heterocyclic drugs defines a general sequential multistep binding process” (The Journal of Biological Chemistry, 2020)
